Source: patent US20200221740A1, “TERMINALIA FERDINANDIANA LEAF EXTRACT AND PRODUCTS CONTAINING EXTRACT OF TERMINALIA FERDINANDIANA LEAF” (RISING PHOENIX INDUSTRIES PTY LTD, priority 2017, published 2020)

Tests used:
[1] = test system: Shewanella frigidimarina strain NCIMB 400; assay: disc diffusion growth inhibition screening; type: cell-based; details: S. frigidimarina
Excerpt: Antibacterial screening: Environmental Shewanella strains: Shewanella putrefaciens strain 200, Shewanella baltica strain OS155, Shewanella frigidimarina strain NCIMB 400 and Shewanella loihica strain PV-4 were used. Antibacterial screening was achieved using a modified peptone/yeast extract (PYE) agar containing: 1 g/L peptone, 1.5 g/L yeast extract, 7.5 g/L NaCl, 1 g/L ammonium persulfate, 2.4 g/L HEPES buffer (pH 7.5) and 16 g/L bacteriological agar.
The S. putrefaciens and S. loihica cultures were incubated at 30° C. for 24 h. The S. baltica and S. frigidimarina cultures were incubated at 15° C. for 72 h. All stock cultures were subcultured and maintained in PYE media at 4° C.
Evaluation of antibacterial activity: Antibacterial activity screening of the T. ferdinandiana fruit and leaf extracts was assessed using a modified disc diffusion assay. Briefly, 100 μL of each individual Shewanella spp. was grown separately in 20 mL of fresh nutrient broth until an approximate count of 10^8 cells/mL was achieved. A volume of 100 μL of each bacterial suspension was spread onto nutrient agar plates and the extracts were tested for antibacterial activity using 5 mm sterilised filter paper discs. […]
Plates inoculated with S. putrefaciens or S. loihica cultures were incubated at 30° C. for 24 h. […] The diameters of the inhibition zones were measured to the closest whole millimetre. […]

[2] = test system: Shewanella putrefaciens strain 200; assay: disc diffusion growth inhibition screening; type: cell-based; details: S. putrefaciens, 10 μL extract per disc, ampicillin 10 μg, 30° C. 24 h
Excerpt: (§1) Antibacterial screening: Environmental Shewanella strains: Shewanella putrefaciens strain 200, Shewanella baltica strain OS155, Shewanella frigidimarina strain NCIMB 400 and Shewanella loihica strain PV-4 were used. Antibacterial screening was achieved using a modified peptone/yeast extract (PYE) agar containing: 1 g/L peptone, 1.5 g/L yeast extract, 7.5 g/L NaCl, 1 g/L ammonium persulfate, 2.4 g/L HEPES buffer (pH 7.5) and 16 g/L bacteriological agar. The S. putrefaciens and S. loihica cultures were incubated at 30° C. for 24 h. The S. baltica and S. frigidimarina cultures were incubated at 15° C. for 72 h. All stock cultures were subcultured and maintained in PYE media at 4° C. Evaluation of antibacterial activity: Antibacterial activity screening of the […] fruit and leaf extracts was assessed using a modified disc diffusion assay. […] Discs were infused with 10 μL of the […] fruit and leaf extracts, allowed to dry and placed onto the inoculated plates. The plates were left to stand at 4° C. for 2 h before incubation. Plates inoculated with S. putrefaciens or S. loihica cultures were incubated at 30° C. for 24 h. S. baltica or S. frigidimarina cultures were incubated at 15° C. for 72 h. The diameters of the inhibition zones were measured to the closest whole millimetre. Each assay was completed in at least triplicate. Mean values (±SEM) are reported in this study. Ampicillin discs (10 μg) were obtained and used as positive controls to compare antibacterial activity. Filter discs infused with 10 μL of distilled water were used as a negative control.

[3] = test system: Shewanella baltica strain OS155; assay: disc diffusion growth inhibition screening; type: cell-based; details: S. baltica
Excerpt: as §1

[4] = test system: Shewanella loihica strain PV-4; assay: disc diffusion growth inhibition screening; type: cell-based; details: PV4, S. loihica, 10 μL extract per disc, ampicillin 10 μg, 30° C. 24 h
Excerpt: as §1

[5] = test system: Artemia franciscana nauplii; assay: Artemia franciscana nauplii lethality assay; details: potassium dichromate 1000 μg/mL
Method: Artemia franciscana nauplii toxicity screening: Toxicity was assessed using a modified Artemia franciscana nauplii lethality assay. Briefly, 400 μL of seawater containing ˜53 (mean 52.7, n=125, SD 11.8) A. franciscana nauplii were added to wells of a 48 well plate and immediately used in the bioassay. A volume of 400 μL of the reference toxin or the diluted plant extracts were transferred to the wells and incubated at 25±1° C. under artificial light (1000 Lux). For each plate, a 400 μL seawater negative control was run in triplicate. The wells were assessed at regular intervals and the number of dead counted. The nauplii were deemed dead if no movement of the appendages was observed within 10 seconds. After 24 h, all nauplii were sacrificed and counted to determine the total % mortality per well.
To further quantify the effects of toxin concentration on the initiation of mortality, the extracts were serially diluted in artificial seawater to test across a range of concentrations in the Artemia nauplii bioassay.

Compound	growth inhibitory activity (in words) [1]	zone of inhibition at 10 µg/disc [2]	growth inhibitory activity (in words) [3]	zone of inhibition at 10 µg/disc [4]	onset of nauplii death [5]	mortality ([5]; within 5 hours)
CC1(C)S[C@@H]2[C@H](NC(=O)[C@H](N)c3ccccc3)C(=O)N2[C@H]1C(=O)O [ampicillin]	resistant	8.3 ± 0.6 mm	unaffected	19.6 ± 1.3 mm		
[K+].[K+].[O]=[Cr](=[O])([O-])[O][Cr](=[O])(=[O])[O-] [potassium dichromate]					≤ 3 h	100%
